Drawing on PubChem BioAssay (NCI), this text covers TGI for 22 compounds.

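Step 1: Grow cells in 96-well plates. Step 2: Expose to compound for 48 hours at 5 concentrations. Step 3: Interpolate endpoints linearly; if unreached, use highest concentration. The concentration for full growth arrest is given as TGI.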 Where a SMILES comes first, the peptide text is derived from it. The star is where a group is joined. Boc = CC(C)(C)OC(=O)*; OBn = c1ccc(CO*)cc1; Bn = c1ccc(C*)cc1

Some test systems named below: A549 NSCLC; NCI-H23 lung; NCI-H226 lung; NCI/ADR-RES ovarian; KM12 colon; MOLT-4 leukemia; MDA-MB-435; SNB-19 CNS; LOX IMVI melanoma; HOP-92 NSCLC; SK-MEL-2 melanoma; MCF7 breast.
Holding throughout (assay): NCI anticancer screen, dose series, 48 h

In the case of `C#CCNC(Cc1ccccc1)C(=O)O` (centres undefined), the TGI with A549 NSCLC, in the experiment with NCI-H23 lung, in the experiment with NCI-H226 lung, with NCI/ADR-RES ovarian, with KM12 colon and in the experiment on MOLT-4 leukemia was more than 100 µM each time. Further, the TGI in the experiment with MDA-MB-435, with SNB-19 CNS, in the experiment with LOX IMVI melanoma, in the experiment on HOP-92 NSCLC and in the experiment with SK-MEL-2 melanoma was more than 100 µM throughout.

Take `N#Cc1nn(-c2ccc(Cl)cc2)c(N)c2c(=N)n3nc(-c4ccccc4)cc3nc12`: the TGI in the experiment with A549 NSCLC is more than 42.1 µM; in the experiment with NCI-H23 lung, more than 51.9 µM; in the experiment with NCI-H226 lung it was more than 100 µM; with KM12 colon, more than 100 µM; in the experiment on MOLT-4 leukemia it was more than 100 µM; with SNB-19 CNS, more than 100 µM. For the same compound, the results for the TGI with LOX IMVI melanoma and in the experiment with SK-MEL-2 melanoma were more than 37.9 µM and more than 20.7 µM, respectively.

As for `C[C@H](NC(=O)OC1C2C=CC(O)C1CC2)c1ccccc1` (some centres undefined), the TGI in the experiment with A549 NSCLC, in the experiment with NCI-H23 lung, in the experiment on NCI-H226 lung, with KM12 colon, in the experiment on MOLT-4 leukemia and in the experiment on SNB-19 CNS was more than 100 µM throughout. The TGI in the experiment with LOX IMVI melanoma and in the experiment on SK-MEL-2 melanoma was more than 100 µM throughout.

As for `COc1ccc(N=NN2CCCC2)cc1`, the TGI with A549 NSCLC is more than 100 µM; in the experiment with NCI-H23 lung it was more than 100 µM; with NCI-H226 lung it was more than 100 µM; in the experiment with MCF7 breast it was 78 µM; in the experiment with KM12 colon, 14.7 µM; in the experiment with MOLT-4 leukemia, 60.6 µM. Further, the TGI was more than 100 µM with MDA-MB-435; more than 100 µM in the experiment on SNB-19 CNS; 37.2 µM in the experiment on LOX IMVI melanoma; 42.4 µM in the experiment with HOP-92 NSCLC; more than 100 µM in the experiment on SK-MEL-2 melanoma.

For the compound `O=C(O)CCCN1CCCCC1`, the TGI with A549 NSCLC, in the experiment on NCI-H23 lung, with NCI-H226 lung, in the experiment on NCI/ADR-RES ovarian, with KM12 colon and in the experiment with MOLT-4 leukemia was more than 100 µM each time. For the same compound, the TGI with MDA-MB-435, in the experiment on SNB-19 CNS, in the experiment with LOX IMVI melanoma, in the experiment with HOP-92 NSCLC and in the experiment with SK-MEL-2 melanoma was more than 100 µM in each case.

Turning to `Cc1c(Cl)cccc1NC(=O)C(=O)C1C(=O)NC(=O)NC1=O`, the TGI in the experiment with A549 NSCLC, with NCI-H23 lung, in the experiment on NCI-H226 lung, with KM12 colon, in the experiment with MOLT-4 leukemia and in the experiment on SNB-19 CNS was more than 100 µM each time. The TGI in the experiment with LOX IMVI melanoma, with HOP-92 NSCLC and with SK-MEL-2 melanoma was more than 100 µM each time.

Consider `CCOC(=O)[C@H]1Nc2ccc(O)cc2C2c3ccccc3CC21` (some centres undefined), for which the TGI in the experiment on A549 NSCLC, in the experiment on NCI-H23 lung, in the experiment on NCI-H226 lung, with KM12 colon, with MOLT-4 leukemia and in the experiment on SNB-19 CNS was more than 100 µM throughout. For the same compound, the TGI in the experiment on LOX IMVI melanoma and in the experiment on SK-MEL-2 melanoma was more than 100 µM throughout.

`OC(Cn1cncn1)(Cn1cncn1)c1ccc(Cl)cc1Cl`: the TGI with A549 NSCLC, in the experiment with NCI-H23 lung, in the experiment on NCI-H226 lung, in the experiment on KM12 colon, with MOLT-4 leukemia and with LOX IMVI melanoma was more than 100 µM throughout. The TGI in the experiment on HOP-92 NSCLC and in the experiment with SK-MEL-2 melanoma was more than 100 µM throughout.

Regarding `CC(=O)OCCOCNC(=S)N/N=C(\C)c1ccco1`, the TGI in the experiment on A549 NSCLC, in the experiment on NCI-H23 lung, in the experiment with NCI-H226 lung, in the experiment on KM12 colon, with SNB-19 CNS and in the experiment on LOX IMVI melanoma was more than 100 µM throughout. The same compound yielded a TGI with SK-MEL-2 melanoma of more than 100 µM.

`NS(=O)(=O)c1ccc(CNC(=S)NC(=O)Nc2ccc(Cl)c(Cl)c2)cc1`: the TGI with A549 NSCLC came out at 65.5 µM; in the experiment with NCI-H23 lung, 30.2 µM; in the experiment on NCI/ADR-RES ovarian, 41.1 µM; with MCF7 breast, 39 µM; in the experiment on KM12 colon it was 43.1 µM; with MOLT-4 leukemia it was 40.2 µM. In addition, the TGI turned out to be 44.3 µM in the experiment with SNB-19 CNS, 27.9 µM with LOX IMVI melanoma, 52.9 µM in the experiment on HOP-92 NSCLC and 31.4 µM in the experiment with SK-MEL-2 melanoma.

As for `CC(C)(C)NNc1c([N+](=O)[O-])cnn(-c2ccccc2)c1=O`, the TGI worked out at 32.4 µM in the experiment on A549 NSCLC; 11.1 µM in the experiment on NCI-H23 lung; 14.7 µM in the experiment on NCI-H226 lung; 14.1 µM in the experiment on MCF7 breast; 24.5 µM with KM12 colon; 4.91 µM in the experiment on MOLT-4 leukemia. The TGI in the experiment with MDA-MB-435 was determined as 3.27 µM; in the experiment on SNB-19 CNS it was 22.7 µM; with LOX IMVI melanoma, 3.32 µM; in the experiment with HOP-92 NSCLC, 12.3 µM.

With `C[Si](C)(C)C#C[I+]c1ccccc1`, the TGI with A549 NSCLC, in the experiment with NCI-H23 lung, with NCI-H226 lung, in the experiment on KM12 colon, with MOLT-4 leukemia and in the experiment with SNB-19 CNS was more than 100 µM in each case. The TGI in the experiment with LOX IMVI melanoma was 41.2 µM; in the experiment on HOP-92 NSCLC, more than 100 µM; with SK-MEL-2 melanoma, more than 100 µM.

As to `CCCCCCCCCCCCCC(=O)OCC1OC(OC)C(NC(=O)N(CCCl)N=O)C(O)C1O` (centres undefined), the TGI with A549 NSCLC was 58.2 µM; with NCI-H23 lung it was 28.6 µM; in the experiment with NCI-H226 lung, 75.7 µM; with KM12 colon it was 64.4 µM; in the experiment with MOLT-4 leukemia it was 29.4 µM; in the experiment on SNB-19 CNS it was more than 100 µM. For the same compound, the TGI in the experiment on LOX IMVI melanoma is 25.7 µM; with SK-MEL-2 melanoma, 71.2 µM.

In the case of `Cn1cc(C(=O)C2CCCCC2)ccc1=O`, the TGI with A549 NSCLC, in the experiment on NCI-H23 lung, in the experiment on NCI-H226 lung, in the experiment with KM12 colon, in the experiment with MOLT-4 leukemia and in the experiment on SNB-19 CNS was more than 100 µM throughout. In addition, the TGI in the experiment with LOX IMVI melanoma, in the experiment with HOP-92 NSCLC and with SK-MEL-2 melanoma was more than 100 µM throughout.

In the case of `CC(C)CC(NC(=O)C(Cc1ccccc1)NC(=O)C(COCc1ccccc1)NC(=O)OC(C)(C)C)C(=O)OCc1ccccc1` (stereo not drawn) (Boc-Ser(Bn)-Phe-Leu-OBn; configuration not given here), the TGI is 43.2 µM with NCI-H23 lung; more than 100 µM with NCI/ADR-RES ovarian; more than 100 µM with MCF7 breast; 33.4 µM in the experiment with MOLT-4 leukemia; more than 100 µM with SNB-19 CNS; 40.1 µM with LOX IMVI melanoma. The TGI with SK-MEL-2 melanoma is more than 100 µM.

As for `Nc1nc(Cl)cc(NCC2(CO)CC(CCCCc3ccccc3)C2)n1` (centres undefined), the TGI in the experiment on A549 NSCLC, in the experiment on NCI-H23 lung, with NCI-H226 lung, with MCF7 breast, in the experiment with KM12 colon and in the experiment on MOLT-4 leukemia was more than 100 µM in each case. Also, the TGI in the experiment with MDA-MB-435, in the experiment on SNB-19 CNS, in the experiment with LOX IMVI melanoma, in the experiment on HOP-92 NSCLC and in the experiment on SK-MEL-2 melanoma was more than 100 µM throughout.

As to `O=Cc1cc(O)c(O)c(O)c1-c1c(C=O)cc(O)c(O)c1O`, the TGI with A549 NSCLC, with NCI-H23 lung, in the experiment with NCI-H226 lung, with KM12 colon, with MOLT-4 leukemia and in the experiment on SNB-19 CNS was more than 100 µM in each case. Besides, the TGI with LOX IMVI melanoma and in the experiment with SK-MEL-2 melanoma was more than 100 µM in each case.

`CC(=O)OC(C)(C)C1CCC(C)(C(O)COc2ccc(CCNC(=O)c3ccccc3)cc2)O1` (centres undefined): the TGI in the experiment on A549 NSCLC is more than 100 µM; with NCI-H23 lung, more than 100 µM; in the experiment on KM12 colon, more than 100 µM; with MOLT-4 leukemia it was 42.5 µM; with SNB-19 CNS, more than 100 µM; in the experiment on LOX IMVI melanoma it was more than 100 µM. The TGI in the experiment with HOP-92 NSCLC and with SK-MEL-2 melanoma was more than 100 µM each time.

As to `CCc1nnc2sc(-c3ccc(-c4ccc(Cl)cc4Cl)o3)nn12`, the TGI with A549 NSCLC, in the experiment with NCI-H23 lung, with NCI-H226 lung, in the experiment on NCI/ADR-RES ovarian, in the experiment on KM12 colon and with MOLT-4 leukemia was more than 100 µM throughout. Also, the TGI in the experiment on MDA-MB-435, in the experiment on SNB-19 CNS, in the experiment with LOX IMVI melanoma, with HOP-92 NSCLC and with SK-MEL-2 melanoma was more than 100 µM each time.

With `CCC1=C(C)C2=NC1=CC1=NC(=C(CC)/C1=C/O)C=C1N=C3C(=C1C)C(=O)C(C(=O)OC)C3=C1NC(=C2)C(C)C1CCC(=O)OC` (centres undefined), the TGI in the experiment with A549 NSCLC, with NCI-H23 lung, in the experiment with NCI-H226 lung, with MCF7 breast, in the experiment on KM12 colon and in the experiment with MOLT-4 leukemia was more than 100 µM throughout. Further, the TGI in the experiment with MDA-MB-435, in the experiment on SNB-19 CNS, in the experiment on LOX IMVI melanoma, in the experiment with HOP-92 NSCLC and in the experiment with SK-MEL-2 melanoma was more than 100 µM throughout.

On to `N#CC(C(=O)c1ccccc1F)c1nc2cc(C(F)(F)F)ccc2s1` (centres undefined), for which the TGI in the experiment with NCI-H23 lung is 53.9 µM; with NCI-H226 lung it was more than 100 µM; in the experiment on NCI/ADR-RES ovarian, more than 100 µM; with KM12 colon, more than 100 µM; with MOLT-4 leukemia, more than 100 µM; with MDA-MB-435, more than 100 µM. Besides, the values for the TGI in the experiment with LOX IMVI melanoma and in the experiment on HOP-92 NSCLC were 36.7 µM and 56.2 µM, respectively.

With `COC(=O)CSc1[nH]c2nc(C)nc(Nc3ccccc3)c2c1C#N`, the TGI in the experiment with A549 NSCLC, in the experiment with NCI-H23 lung, with MCF7 breast, with KM12 colon, with MOLT-4 leukemia and with MDA-MB-435 was more than 10 µM throughout. Besides, the TGI in the experiment on LOX IMVI melanoma and in the experiment on HOP-92 NSCLC was more than 10 µM in each case.
